Laboratory results as given in US20170190671A1, “BIS(ARYL)CATECHOL DERIVATIVES AS HERBICIDES” (E I DU PONT DE NEMOURS AND COMPANY, priority 2014, published 2017).

Assays:
Assay in all cases: Test C postemergence
Format in all cases: in vivo
[1] = system: blackgrass (Alopecurus myosuroides); settings: scale 0 to 100
In short: (§1)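 Greenhouse test, preemergence on seeded soil or postemergence on 1- to 4-leaf plants. Response is a visual 0-100 rating versus controls, taken 13-15 days after treatment.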

[2] = system: ragweed (common ragweed, Ambrosia elatior); settings: scale 0 to 100
In short: as §1

[3] = system: velvetleaf (Abutilon theophrasti); settings: scale 0 to 100
In short: as §1

[4] = system: morningglory (Ipomoea coccinea); settings: scale 0 to 100
In short: as §1

soybean (Glycine max) = settings: scale 0 to 100
In short: as §1

[5] = system: barnyardgrass (Echinochloa crus-galli)
In short: as §1

[6] = system: waterhemp (common waterhemp, Amaranthus rudis); settings: scale 0 to 100
In short: as §1

corn (Zea mays) = settings: scale 0 to 100
In short: as §1

[7] = system: pigweed (Amaranthus retroflexus); settings: scale 0 to 100
In short: as §1

[8] = system: johnsongrass (Sorghum halepense); settings: scale 0 to 100
In short: as §1

[9] = system: large (Lg) crabgrass (Digitaria sanguinalis); settings: scale 0 to 100
In short: as §1

[10] = system: galium (catchweed bedstraw, Galium aparine); settings: scale 0 to 100
In short: as §1

[11] = system: chickweed (common chickweed, Stellaria media); settings: scale 0 to 100
In short: as §1

[12] = system: oilseed rape (Brassica napus); settings: scale 0 to 100
In short: as §1

[13] = system: lambsquarters (Chenopodium album); settings: scale 0 to 100
In short: as §1

[14] = system: giant foxtail (Setaria faberii); settings: scale 0 to 100
In short: as §1

[15] = system: winter wheat (Triticum aestivum); settings: scale 0 to 100
In short: as §1

kochia (Kochia scoparia) = settings: scale 0 to 100
In short: as §1

[16] = system: yellow nutsedge (Cyperus esculentus); settings: scale 0 to 100
In short: as §1

## Fc1ccc(F)c(Oc2ncc(C(F)(F)F)cn2)c1Oc1ncc(Cl)cn1 [Compound 25]
[1]; 8 g ai/ha, postemergence
  Plant response rating, Blackgrass: 0
[1]; Postemergence, 16 g ai/ha
  Plant response rating, Blackgrass: 0
[1]; Postemergence, 31 g ai/ha
  Plant response rating, Blackgrass: 5
[1]; Postemergence, 62 g ai/ha
  Plant response rating, Blackgrass: 5
[2]; 8 g ai/ha, postemergence
  Plant response rating, Ragweed: 0
[2]; Postemergence, 31 g ai/ha
  Plant response rating, Ragweed: 10
[2]; Postemergence, 62 g ai/ha
  Plant response rating, Ragweed: 25
[3]; 8 g ai/ha, postemergence
  Plant response rating, Velvetleaf: 30
[3]; Postemergence, 31 g ai/ha
  Plant response rating, Velvetleaf: 60
[3]; Postemergence, 62 g ai/ha
  Plant response rating, Velvetleaf: 30
[4]; 8 g ai/ha, postemergence
  Plant response rating, Morningglory: 20
[4]; Postemergence, 31 g ai/ha
  Plant response rating, Morningglory: 10
[4]; Postemergence, 62 g ai/ha
  Plant response rating, Morningglory: 15
Soybean (Glycine max); 8 g ai/ha, postemergence
  Plant response rating, Soybean: 30
Soybean (Glycine max); Postemergence, 31 g ai/ha
  Plant response rating, Soybean: 50
Soybean (Glycine max); Postemergence, 62 g ai/ha
  Plant response rating, Soybean: 45
[5]; 8 g ai/ha, postemergence, scale 0 to 100 (0 no effect, 100 complete control)
  Plant response rating, Barnyardgrass: 5
[5]; Postemergence, 16 g ai/ha, scale 0 to 100
  Plant response rating, Barnyardgrass: 5
[5]; Postemergence, 31 g ai/ha, scale 0 to 100
  Plant response rating, Barnyardgrass: 5
[5]; Postemergence, 62 g ai/ha, scale 0 to 100
  Plant response rating, Barnyardgrass: 10
[6]; 8 g ai/ha, postemergence
  Plant response rating, Waterhemp: 90
[6]; Postemergence, 31 g ai/ha
  Plant response rating, Waterhemp: 50
[6]; Postemergence, 62 g ai/ha
  Plant response rating, Waterhemp: 75
Corn (Zea mays); 8 g ai/ha, postemergence
  Plant response rating, Corn: 5
Corn (Zea mays); Postemergence, 16 g ai/ha
  Plant response rating, Corn: 5
Corn (Zea mays); Postemergence, 31 g ai/ha
  Plant response rating, Corn: 5
Corn (Zea mays); Postemergence, 62 g ai/ha
  Plant response rating, Corn: 5
[7]; 8 g ai/ha, postemergence
  Plant response rating, Pigweed: 75
[7]; Postemergence, 31 g ai/ha
  Plant response rating, Pigweed: 85
[7]; Postemergence, 62 g ai/ha
  Plant response rating, Pigweed: 95
[8]; 8 g ai/ha, postemergence
  Plant response rating, Johnsongrass: 0
[8]; Postemergence, 16 g ai/ha
  Plant response rating, Johnsongrass: 5
[8]; Postemergence, 31 g ai/ha
  Plant response rating, Johnsongrass: 5
[8]; Postemergence, 62 g ai/ha
  Plant response rating, Johnsongrass: 5
[9]; 8 g ai/ha, postemergence
  Plant response rating, Crabgrass, Large: 0
[9]; Postemergence, 16 g ai/ha
  Plant response rating, Crabgrass, Large: 0
[9]; Postemergence, 31 g ai/ha
  Plant response rating, Crabgrass, Large: 0
[9]; Postemergence, 62 g ai/ha
  Plant response rating, Crabgrass, Large: 5
[10]; 8 g ai/ha, postemergence
  Plant response rating, Galium: 50
[10]; Postemergence, 16 g ai/ha
  Plant response rating, Galium: 55
[10]; Postemergence, 31 g ai/ha
  Plant response rating, Galium: 80
[10]; Postemergence, 62 g ai/ha
  Plant response rating, Galium: 80
[11]; 8 g ai/ha, postemergence
  Plant response rating, Chickweed: 0
[11]; Postemergence, 16 g ai/ha
  Plant response rating, Chickweed: 20
[11]; Postemergence, 31 g ai/ha
  Plant response rating, Chickweed: 50
[11]; Postemergence, 62 g ai/ha
  Plant response rating, Chickweed: 60
[12]; 8 g ai/ha, postemergence
  Plant response rating, Oilseed Rape: 30
[12]; Postemergence, 31 g ai/ha
  Plant response rating, Oilseed Rape: 50
[12]; Postemergence, 62 g ai/ha
  Plant response rating, Oilseed Rape: 45
[13]; 8 g ai/ha, postemergence
  Plant response rating, Lambsquarters: 60
[13]; Postemergence, 16 g ai/ha
  Plant response rating, Lambsquarters: 80
[13]; Postemergence, 31 g ai/ha
  Plant response rating, Lambsquarters: 80
[13]; Postemergence, 62 g ai/ha
  Plant response rating, Lambsquarters: 75
[14]; 8 g ai/ha, postemergence
  Plant response rating, Foxtail, Giant: 0
[14]; Postemergence, 16 g ai/ha
  Plant response rating, Foxtail, Giant: 0
[14]; Postemergence, 31 g ai/ha
  Plant response rating, Foxtail, Giant: 0
[14]; Postemergence, 62 g ai/ha
  Plant response rating, Foxtail, Giant: 5
[15]; 8 g ai/ha, postemergence
  Plant response rating, Wheat: 0
[15]; Postemergence, 31 g ai/ha
  Plant response rating, Wheat: 0
[15]; Postemergence, 62 g ai/ha
  Plant response rating, Wheat: 0
Kochia (Kochia scoparia); 8 g ai/ha, postemergence
  Plant response rating, Kochia: 0
Kochia (Kochia scoparia); Postemergence, 16 g ai/ha
  Plant response rating, Kochia: 50
Kochia (Kochia scoparia); Postemergence, 31 g ai/ha
  Plant response rating, Kochia: 60
Kochia (Kochia scoparia); Postemergence, 62 g ai/ha
  Plant response rating, Kochia: 75
[16]; 8 g ai/ha, postemergence
  Plant response rating, Nutsedge, Yellow: 0
[16]; Postemergence, 31 g ai/ha
  Plant response rating, Nutsedge, Yellow: 5
[16]; Postemergence, 62 g ai/ha
  Plant response rating, Nutsedge, Yellow: 10
